{
  "source": "ChEMBL document CHEMBL5696442",
  "about": "“Discovery of type II inhibitors of TGFβ-activated kinase 1 (TAK1) and mitogen-activated protein kinase kinase kinase kinase 2 (MAP4K2)” (J Med Chem, 2015)",
  "key": {"[1]": {"biological_target": "Cyclin-dependent kinase 11B (Homo sapiens) (UniProt P21127)", "sequence (P21127 whole entry)": "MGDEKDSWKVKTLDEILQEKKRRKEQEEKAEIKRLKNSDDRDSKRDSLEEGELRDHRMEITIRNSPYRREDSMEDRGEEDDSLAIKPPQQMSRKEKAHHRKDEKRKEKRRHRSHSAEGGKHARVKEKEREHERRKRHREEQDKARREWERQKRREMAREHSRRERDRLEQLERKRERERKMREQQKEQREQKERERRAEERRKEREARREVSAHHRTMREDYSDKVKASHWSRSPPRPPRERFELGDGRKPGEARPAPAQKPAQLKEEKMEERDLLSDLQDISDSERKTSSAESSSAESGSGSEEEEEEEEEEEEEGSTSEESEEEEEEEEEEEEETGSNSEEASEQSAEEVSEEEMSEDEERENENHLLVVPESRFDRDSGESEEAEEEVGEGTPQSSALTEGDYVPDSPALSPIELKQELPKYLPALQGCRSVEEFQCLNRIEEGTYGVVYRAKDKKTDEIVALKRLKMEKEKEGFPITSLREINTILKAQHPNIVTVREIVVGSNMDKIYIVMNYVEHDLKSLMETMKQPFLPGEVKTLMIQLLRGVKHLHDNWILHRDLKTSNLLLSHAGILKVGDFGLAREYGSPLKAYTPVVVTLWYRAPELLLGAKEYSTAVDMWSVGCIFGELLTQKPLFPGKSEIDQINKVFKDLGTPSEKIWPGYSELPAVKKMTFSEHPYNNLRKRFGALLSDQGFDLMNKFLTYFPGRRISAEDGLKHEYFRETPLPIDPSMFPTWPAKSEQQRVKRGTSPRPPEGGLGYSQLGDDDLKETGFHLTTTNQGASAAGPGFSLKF", "experiment": "Inhibition of CDK11 Lys2 labeling site in human Huh-7 cell lysate at 1 uM by KiNativ Profiling analysis relative to control", "format": "subcellular"}, "[2]": {"biological_target": "Serine/threonine-protein kinase Nek3 (Homo sapiens) (UniProt P51956)", "sequence (P51956 whole entry)": "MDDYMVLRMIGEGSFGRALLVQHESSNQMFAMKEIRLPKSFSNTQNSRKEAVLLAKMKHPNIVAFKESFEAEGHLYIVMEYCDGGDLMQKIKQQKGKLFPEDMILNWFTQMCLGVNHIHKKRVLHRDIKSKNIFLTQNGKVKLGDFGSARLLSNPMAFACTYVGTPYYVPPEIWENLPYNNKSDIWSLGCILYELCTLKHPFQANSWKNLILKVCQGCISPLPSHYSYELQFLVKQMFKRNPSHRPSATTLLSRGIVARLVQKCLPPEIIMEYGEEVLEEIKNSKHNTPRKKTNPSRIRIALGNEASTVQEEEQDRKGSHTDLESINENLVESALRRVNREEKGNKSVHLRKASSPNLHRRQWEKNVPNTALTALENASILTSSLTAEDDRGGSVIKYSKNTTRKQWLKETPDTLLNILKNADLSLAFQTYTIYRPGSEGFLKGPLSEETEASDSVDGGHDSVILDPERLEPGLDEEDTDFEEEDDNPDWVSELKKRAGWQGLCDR", "experiment": "Inhibition of NEK3 ACT labeling site in human Huh-7 cell lysate at 1 uM by KiNativ Profiling analysis relative to control", "format": "subcellular"}, "[3]": {"biological_target": "Platelet-derived growth factor receptor alpha (Homo sapiens) (UniProt P16234)", "sequence (P16234 whole entry)": "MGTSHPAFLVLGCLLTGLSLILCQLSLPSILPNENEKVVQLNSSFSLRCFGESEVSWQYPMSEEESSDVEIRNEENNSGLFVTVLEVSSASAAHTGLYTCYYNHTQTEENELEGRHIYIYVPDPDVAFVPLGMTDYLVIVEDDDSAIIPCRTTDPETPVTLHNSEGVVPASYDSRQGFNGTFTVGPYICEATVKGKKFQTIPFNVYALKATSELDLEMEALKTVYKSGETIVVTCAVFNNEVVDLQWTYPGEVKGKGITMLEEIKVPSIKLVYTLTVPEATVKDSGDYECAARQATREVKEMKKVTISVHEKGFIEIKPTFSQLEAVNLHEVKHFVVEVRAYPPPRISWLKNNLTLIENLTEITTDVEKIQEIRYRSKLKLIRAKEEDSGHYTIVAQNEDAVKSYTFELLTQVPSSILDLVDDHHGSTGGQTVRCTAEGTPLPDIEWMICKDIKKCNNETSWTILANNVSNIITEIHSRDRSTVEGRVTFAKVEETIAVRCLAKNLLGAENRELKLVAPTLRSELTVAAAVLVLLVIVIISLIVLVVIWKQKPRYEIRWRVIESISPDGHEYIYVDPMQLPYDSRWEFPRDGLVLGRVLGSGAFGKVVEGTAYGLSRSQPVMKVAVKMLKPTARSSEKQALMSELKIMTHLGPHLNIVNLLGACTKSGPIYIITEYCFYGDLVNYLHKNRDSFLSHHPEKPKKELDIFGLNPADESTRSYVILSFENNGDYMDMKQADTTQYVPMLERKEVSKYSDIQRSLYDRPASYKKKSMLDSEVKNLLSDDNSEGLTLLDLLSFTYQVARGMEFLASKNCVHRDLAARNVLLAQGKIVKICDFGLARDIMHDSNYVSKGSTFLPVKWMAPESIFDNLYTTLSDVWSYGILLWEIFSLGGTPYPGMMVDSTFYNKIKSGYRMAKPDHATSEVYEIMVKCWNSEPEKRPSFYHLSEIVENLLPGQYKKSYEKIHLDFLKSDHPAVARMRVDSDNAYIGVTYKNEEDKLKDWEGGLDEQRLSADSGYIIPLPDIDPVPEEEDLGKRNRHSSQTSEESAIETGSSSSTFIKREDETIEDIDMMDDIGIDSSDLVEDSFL", "experiment": "Inhibition of PDGFRA (unknown origin) at 10 uM by Ambit Kinomescan binding assay relative to control"}, "[4]": {"biological_target": "T1, Serine/threonine-protein kinase Sgk3 (Homo sapiens) (UniProt Q96BR1)", "T1 sequence (whole entry)": "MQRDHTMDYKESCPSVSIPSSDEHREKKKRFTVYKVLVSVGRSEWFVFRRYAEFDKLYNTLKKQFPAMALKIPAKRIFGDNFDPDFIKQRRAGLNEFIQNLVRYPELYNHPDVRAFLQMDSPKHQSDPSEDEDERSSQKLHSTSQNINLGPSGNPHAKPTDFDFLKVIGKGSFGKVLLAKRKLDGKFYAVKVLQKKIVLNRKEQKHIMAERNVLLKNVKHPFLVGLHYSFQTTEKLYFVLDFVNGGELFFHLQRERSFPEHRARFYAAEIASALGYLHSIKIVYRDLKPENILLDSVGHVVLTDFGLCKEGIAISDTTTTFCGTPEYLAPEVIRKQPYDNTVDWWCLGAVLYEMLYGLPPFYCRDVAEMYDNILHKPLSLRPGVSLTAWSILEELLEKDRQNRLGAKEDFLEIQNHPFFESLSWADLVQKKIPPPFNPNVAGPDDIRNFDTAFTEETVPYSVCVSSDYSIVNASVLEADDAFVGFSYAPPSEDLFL", "experiment": "Inhibition of SGK3 Lys1 labeling site in human A-375 cells at 0.5 uM by KiNativ Profiling analysis relative to control", "format": "cell-based"}, "[5]": {"biological_target": "T2, Mitogen-activated protein kinase kinase kinase kinase 2 (Homo sapiens) (UniProt Q12851)", "T2 sequence (whole entry)": "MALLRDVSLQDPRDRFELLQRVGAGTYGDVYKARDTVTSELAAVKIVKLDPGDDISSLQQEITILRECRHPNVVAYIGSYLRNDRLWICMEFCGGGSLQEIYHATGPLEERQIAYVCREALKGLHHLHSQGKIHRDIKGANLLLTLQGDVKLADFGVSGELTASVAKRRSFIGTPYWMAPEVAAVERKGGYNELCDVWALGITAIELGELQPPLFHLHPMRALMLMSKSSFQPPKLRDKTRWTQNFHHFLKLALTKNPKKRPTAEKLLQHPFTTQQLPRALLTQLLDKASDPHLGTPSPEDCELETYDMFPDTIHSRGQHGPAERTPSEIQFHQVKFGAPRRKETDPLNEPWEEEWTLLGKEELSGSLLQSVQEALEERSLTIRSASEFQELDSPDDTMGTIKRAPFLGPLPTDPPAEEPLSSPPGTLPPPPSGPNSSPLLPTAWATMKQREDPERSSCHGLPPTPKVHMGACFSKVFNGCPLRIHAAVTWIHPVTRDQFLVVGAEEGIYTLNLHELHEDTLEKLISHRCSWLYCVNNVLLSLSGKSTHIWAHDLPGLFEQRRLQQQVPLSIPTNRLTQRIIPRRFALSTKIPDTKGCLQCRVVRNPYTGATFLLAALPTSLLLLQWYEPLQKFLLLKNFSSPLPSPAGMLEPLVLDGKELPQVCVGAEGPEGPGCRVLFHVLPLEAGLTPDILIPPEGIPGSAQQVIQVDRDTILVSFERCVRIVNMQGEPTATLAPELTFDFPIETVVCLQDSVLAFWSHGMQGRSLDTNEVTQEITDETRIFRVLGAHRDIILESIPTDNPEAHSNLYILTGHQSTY", "experiment": "Inhibition of MAP4K2 (GCK) Lys1 labeling site in human A-375 cells at 5 uM by KiNativ Profiling analysis relative to control", "format": "cell-based"}, "[6]": {"biological_target": "T3, Kinase suppressor of Ras 1 (Homo sapiens) (UniProt Q8IVT5)", "T3 sequence (whole entry)": "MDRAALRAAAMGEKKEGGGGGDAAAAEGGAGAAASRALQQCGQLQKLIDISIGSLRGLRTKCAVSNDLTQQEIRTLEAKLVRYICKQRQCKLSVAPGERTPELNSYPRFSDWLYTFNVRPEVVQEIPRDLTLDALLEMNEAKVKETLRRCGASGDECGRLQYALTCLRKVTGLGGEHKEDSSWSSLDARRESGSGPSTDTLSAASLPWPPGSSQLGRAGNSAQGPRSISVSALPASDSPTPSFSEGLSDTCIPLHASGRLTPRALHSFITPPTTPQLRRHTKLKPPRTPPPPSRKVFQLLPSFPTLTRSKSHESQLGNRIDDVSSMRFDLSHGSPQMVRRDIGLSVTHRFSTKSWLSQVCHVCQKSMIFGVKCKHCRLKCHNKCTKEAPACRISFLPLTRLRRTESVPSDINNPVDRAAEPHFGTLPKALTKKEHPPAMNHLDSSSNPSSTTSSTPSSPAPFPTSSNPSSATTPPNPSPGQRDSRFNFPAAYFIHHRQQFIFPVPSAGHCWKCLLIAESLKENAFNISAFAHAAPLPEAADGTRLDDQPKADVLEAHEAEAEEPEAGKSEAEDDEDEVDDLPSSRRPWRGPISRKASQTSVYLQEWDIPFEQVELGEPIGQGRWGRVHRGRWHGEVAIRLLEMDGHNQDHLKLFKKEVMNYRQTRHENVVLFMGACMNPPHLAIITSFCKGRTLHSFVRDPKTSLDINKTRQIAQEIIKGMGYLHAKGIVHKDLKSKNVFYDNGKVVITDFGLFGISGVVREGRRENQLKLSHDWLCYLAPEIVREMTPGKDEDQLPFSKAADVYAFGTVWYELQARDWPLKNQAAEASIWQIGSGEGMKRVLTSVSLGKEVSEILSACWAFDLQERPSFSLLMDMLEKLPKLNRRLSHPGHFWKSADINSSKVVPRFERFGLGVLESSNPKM", "experiment": "Inhibition of KSR1 ACT labeling site harbouring SKNVFYDNGKVVITDFGLFGISGVVR in human A-375 cells at 0.05 uM by KiNativ Profiling analysis relative to control", "format": "cell-based"}, "[7]": {"tested_on": "MEF", "experiment": "Inhibition of IL-1alpha induced JNK1/2 phosphorylation level in mouse MEF cells preincubated for 1 hr followed by IL-1 alpha stimulation and measured after 30 mins by Western blot analysis", "format": "functional, cell-based", "conditions": "dose 0.01-10 µM"}, "[8]": {"biological_target": "Cyclin-dependent kinase 16 (Homo sapiens) (UniProt Q00536)", "sequence (Q00536 whole entry)": "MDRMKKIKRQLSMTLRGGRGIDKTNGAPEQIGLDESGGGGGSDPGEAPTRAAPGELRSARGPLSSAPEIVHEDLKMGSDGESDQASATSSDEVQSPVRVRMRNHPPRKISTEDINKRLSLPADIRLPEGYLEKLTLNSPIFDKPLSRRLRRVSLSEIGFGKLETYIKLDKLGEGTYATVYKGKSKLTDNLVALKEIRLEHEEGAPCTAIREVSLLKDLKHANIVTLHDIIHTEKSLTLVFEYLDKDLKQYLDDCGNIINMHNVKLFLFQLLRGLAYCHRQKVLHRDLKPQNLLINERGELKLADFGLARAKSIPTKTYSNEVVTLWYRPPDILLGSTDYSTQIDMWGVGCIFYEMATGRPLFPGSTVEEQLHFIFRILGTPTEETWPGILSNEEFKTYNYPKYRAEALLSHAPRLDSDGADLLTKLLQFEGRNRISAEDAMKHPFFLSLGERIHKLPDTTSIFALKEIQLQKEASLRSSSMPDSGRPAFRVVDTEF", "experiment": "Inhibition of PFTAIRE1 Lys2 labeling site in human A-375 cells at 0.5 uM by KiNativ Profiling analysis relative to control", "format": "cell-based"}, "[9]": {"biological_target": "Ephrin type-A receptor 2 (Homo sapiens, UniProt P29317)", "sequence (P29317 whole entry)": "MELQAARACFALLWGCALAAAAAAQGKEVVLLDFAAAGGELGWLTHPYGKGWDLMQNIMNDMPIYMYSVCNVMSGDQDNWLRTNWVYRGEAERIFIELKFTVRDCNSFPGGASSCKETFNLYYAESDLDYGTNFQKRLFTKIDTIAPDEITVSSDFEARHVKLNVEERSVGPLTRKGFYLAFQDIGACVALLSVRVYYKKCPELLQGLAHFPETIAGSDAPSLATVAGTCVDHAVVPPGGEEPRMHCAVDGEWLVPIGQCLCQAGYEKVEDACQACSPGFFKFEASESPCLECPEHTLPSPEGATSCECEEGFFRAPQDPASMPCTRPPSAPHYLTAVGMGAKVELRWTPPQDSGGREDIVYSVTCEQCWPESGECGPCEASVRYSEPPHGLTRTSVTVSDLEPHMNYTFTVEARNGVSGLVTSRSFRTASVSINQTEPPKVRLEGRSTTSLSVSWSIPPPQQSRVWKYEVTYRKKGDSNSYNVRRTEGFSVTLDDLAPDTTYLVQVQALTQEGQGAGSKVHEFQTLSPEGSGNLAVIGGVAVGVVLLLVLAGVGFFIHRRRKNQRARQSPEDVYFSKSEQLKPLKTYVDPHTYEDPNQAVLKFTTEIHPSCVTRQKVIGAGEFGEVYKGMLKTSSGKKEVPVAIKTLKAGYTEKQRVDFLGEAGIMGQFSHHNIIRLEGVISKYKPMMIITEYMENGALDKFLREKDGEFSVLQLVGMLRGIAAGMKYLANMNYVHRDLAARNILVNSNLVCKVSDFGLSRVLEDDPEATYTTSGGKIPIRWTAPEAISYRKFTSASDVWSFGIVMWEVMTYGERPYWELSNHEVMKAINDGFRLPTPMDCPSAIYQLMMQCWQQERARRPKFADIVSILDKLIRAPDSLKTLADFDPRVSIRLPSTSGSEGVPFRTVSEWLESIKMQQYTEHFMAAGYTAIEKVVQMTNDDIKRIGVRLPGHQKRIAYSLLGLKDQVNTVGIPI", "experiment": "Inhibition of EPHA2 (unknown origin) at 1 uM by Ambit Kinomescan binding assay relative to control"}, "[10]": {"biological_target": "Tyrosine-protein kinase Lck (Homo sapiens) (UniProt P06239)", "sequence (P06239 2-509 limits assumed)": "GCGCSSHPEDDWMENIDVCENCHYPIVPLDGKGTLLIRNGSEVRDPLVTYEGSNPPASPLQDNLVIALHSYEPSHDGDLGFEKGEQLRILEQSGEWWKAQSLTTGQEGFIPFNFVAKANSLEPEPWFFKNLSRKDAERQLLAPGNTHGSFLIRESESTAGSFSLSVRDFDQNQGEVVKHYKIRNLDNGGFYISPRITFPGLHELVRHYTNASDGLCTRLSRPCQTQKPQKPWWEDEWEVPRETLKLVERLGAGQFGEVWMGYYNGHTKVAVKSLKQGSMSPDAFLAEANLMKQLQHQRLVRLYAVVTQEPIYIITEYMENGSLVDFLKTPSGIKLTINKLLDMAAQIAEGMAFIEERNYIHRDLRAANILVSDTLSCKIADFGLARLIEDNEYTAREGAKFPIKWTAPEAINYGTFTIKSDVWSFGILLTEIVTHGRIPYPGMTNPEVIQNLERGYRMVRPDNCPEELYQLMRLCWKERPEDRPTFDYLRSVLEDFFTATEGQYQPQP", "experiment": "Inhibition of LCK (unknown origin) at 1 uM by Ambit Kinomescan binding assay relative to control"}},
  "data": [
    {"smiles": "CNc1cc(Oc2cc(C(=O)Nc3cc(N4CCN(C)CC4)cc(C(F)(F)F)c3)ccc2C)ncn1", "values": [
      {"measurement": "inhibition", "setting": "[1]", "result": -8.6, "unit": "%"},
      {"measurement": "inhibition", "setting": "[2]", "result": 9.3, "unit": "%"}
    ]},
    {"smiles": "CCN1CCN(Cc2ccc(NC(=O)c3ccc(C)c(Oc4ccnc5[nH]ccc45)c3)cc2C(F)(F)F)CC1", "values": [
      {"measurement": "inhibition", "setting": "[3]", "result": 0.6, "unit": "%"},
      {"measurement": "inhibition", "setting": "[4]", "result": -9.6, "unit": "%"},
      {"measurement": "inhibition", "setting": "[5]", "result": "> 99.5", "unit": "%"},
      {"measurement": "inhibition", "setting": "[6]", "result": -2.6, "unit": "%"},
      {"measurement": "inhibition", "setting": "[7]", "result": "Dose-Dependent Effect"},
      {"measurement": "inhibition", "setting": "[8]", "result": 33.6, "unit": "%"}
    ]},
    {"smiles": "CCN1CCN(Cc2ccc(NC(=O)c3ccc(C)c(/C=C/c4cnc5[nH]ccc5c4OC)c3)cc2C(F)(F)F)CC1", "values": [
      {"measurement": "percent of control", "setting": "[9]", "result": 1.2, "unit": "%"},
      {"measurement": "inhibition", "setting": "[10]", "result": 0.35, "unit": "%"}
    ]}
  ]
}
